Laboratory results as given in US12060349B2, “Glucosylceramide synthase inhibitors” (Genzyme Corporation, priority 2012, dated 2024).
pIC50: −log10 of the molar value. Read-outs that look alike come from different tables or passages of the source.

Legend:
[1] = molecular target: T1, glucosylceramide synthase (Homo sapiens, UniProt Q16739); assay: microsomal assay measuring conversion of ceramide to glucosylceramide by HPLC (GCS IC50); format: biochemical; conditions: concentration causing 50% inhibition of glucosylceramide synthase activity
T1 construct: Microsomes were isolated from A375 human melanoma cells; endogenous in cells; host or cells: A375 human melanoma cells (microsomal fraction, 100,000 g pellet)
T1 sequence (Q16739 1-394): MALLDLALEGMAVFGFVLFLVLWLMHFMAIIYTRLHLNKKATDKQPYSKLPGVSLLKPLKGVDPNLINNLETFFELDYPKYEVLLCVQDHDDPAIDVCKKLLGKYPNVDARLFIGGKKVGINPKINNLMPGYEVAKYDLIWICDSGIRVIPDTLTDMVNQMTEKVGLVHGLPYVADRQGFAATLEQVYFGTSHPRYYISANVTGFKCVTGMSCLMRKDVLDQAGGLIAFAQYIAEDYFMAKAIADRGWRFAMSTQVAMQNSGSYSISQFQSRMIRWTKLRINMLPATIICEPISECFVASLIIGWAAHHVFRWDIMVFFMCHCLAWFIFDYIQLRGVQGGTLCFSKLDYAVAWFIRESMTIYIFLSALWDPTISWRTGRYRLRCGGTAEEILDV
Summary of the method: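 IC50 is the compound concentration halving glucosylceramide synthase activity. Activity was measured in microsomes, with HPLC quantifying glucosylceramide formed from ceramide.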

[2] = test system: GM3 expression on the cell surface, B16 mouse melanoma cells; assay: cell based phenotypic assay, cell surface GM3 by antibody mediated immunofluorescence, B16 (GM3 B16 IC50); conditions: 50% inhibition of GM3 expression on the cell surface
Summary of the method: (§1)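 Both lines undergo the phenotypic GM3 assay, and viability is recorded from that same cell-based run.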

[3] = test system: GM3 expression on the cell surface, C32 human melanoma cells; assay: cell based phenotypic assay, cell surface GM3 by antibody mediated immunofluorescence, C32 (GM3 C32 IC50); conditions: 50% inhibition of GM3 expression on the cell surface
Summary of the method: as §1

[4] = test system: B16 mouse melanoma cells; assay: cell viability in the B16 cell-based assay (Viability, B16 IC50)
Summary of the method: (§2)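 Cell death was scored within the cell-based GM3 experiment for each line. The viability value is the concentration producing 50% death, and numbers exceeding 10 signify no cytotoxicity.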

[5] = test system: C32 human melanoma cells; assay: cell viability in the C32 cell-based assay (Viability, C32 IC50); conditions: concentration causing 50% cell death, values greater than 10 represent a lack of cell death
Summary of the method: as §2

[6] = Mus musculus, read-out: GM3 B16 IC50, B16 mouse melanoma cells
[7] = Homo sapiens, read-out: GM3 C32 IC50, C32 human melanoma cells
[8] = read-out: Viability, B16 IC50, B16 cells, concentration causing 50% cell death, values greater than 10 represent a lack of cell death
[9] = read-out: Viability, C32 IC50, C32 cells
[10] = Mus musculus, B16 mouse melanoma cells, read-out: GM3 B16 IC50
[11] = Homo sapiens, C32 human melanoma cells, read-out: GM3 C32 IC50
[12] = Mus musculus, B16, B16 cells, concentration causing 50% cell death, values greater than 10 represent a lack of cell death, read-out: Viability, B16 IC50
[13] = Homo sapiens, C32, C32 cells, read-out: Viability, C32 IC50
[14] = Mus musculus, B16, read-out: Viability, B16 IC50
[15] = Homo sapiens, C32, read-out: Viability, C32 IC50, C32 cells

Compound `CC(C)(NC(=O)OC1CN2CCC1CC2)c1ccc(-c2ccc(CCO)cc2)cc1` (stereo not shown) [Example 226, Quinuclidin-3-yl (2-(4′-(2-hydroxyethyl)-[1,1′-biphenyl]-4-yl)propan-2-yl)carbamate] has a pIC50 [1] of 6.83, a pIC50 [2, 6] of 6.18 and a pIC50 [3, 7] of 7.65. For the same compound, the pIC50 [4, 8] was ≤ 5.00 and the pIC50 [5, 9] was ≤ 5.00.

`CN(C)C(=O)c1ccc(-c2ccc(C(C)(C)NC(=O)NC3(C)CN4CCC3CC4)cc2)cc1` (stereo not shown) [Example 258, N,N-Dimethyl-4′-(2-(3-(3-methylquinuclidin-3-yl)ureido)propan-2-yl)biphenyl-4-carboxamide] showed a pIC50 [1] of 6.55, a pIC50 [2, 10] of 5.63 and a pIC50 [3, 11] of 7.31. The pIC50 [4, 12] was ≤ 5.00 and the pIC50 [5, 13] was ≤ 5.00.

For `O=C(OC1CN2CCC1CC2)N1CCN(c2ccccc2)CC1` (stereo not shown) [Example 12, Quinuclidin-3-yl 4-phenylpiperazine-1-carboxylate], the pIC50 [1] was 4.91, the pIC50 [2, 6] was < 5.00 and the pIC50 [3, 7] was < 5.00. For the same compound, the pIC50 [4, 8] was ≤ 5.00 and the pIC50 [5, 9] was ≤ 5.00.

With `CC(C)(NC(=O)N1CCN2CCC1CC2)c1ccc(-c2ccc(OCCCn3ccnn3)cc2)cc1` [Example 188, N-(2-(4′-(3-(1H-1,2,3-Triazol-1-yl)propoxy)-[1,1′-biphenyl]-4-yl)propan-2-yl)-1,4-diazabicyclo[3.2.2]nonane-4-carboxamide] the pIC50 [1] was 6.22, the pIC50 [2, 10] was 6.44 and the pIC50 [3, 11] was 7.11. The pIC50 [4, 12] was ≤ 5.00 and the pIC50 [5, 13] was 6.00.

Work on `O=C(NC1CN2CCC1CC2)N1CCN(c2ccc(-c3ccccc3)cc2)CC1` (stereo not shown) [Example 2, 4-([1,1′-Biphenyl]-4-yl)-N-(quinuclidin-3-yl)piperazine-1-carboxamide] yielded a pIC50 [1] of 5.16, a pIC50 [2, 10] of 5.80 and a pIC50 [3, 11] of 6.18. It also gave a pIC50 [4, 12] of 5.28 and a pIC50 [5, 13] of 5.12.

`CC1(NC(=O)C2CCN(c3cccc(-c4cncnc4)c3)CC2)CCN2CCC1CC2` (stereo not shown) [Example 40, N-(4-Methyl-1-azabicyclo[3.2.2]nonan-4-yl)-1-(3-(pyrimidin-5-yl)phenyl)piperidine-4-carboxamide] showed a pIC50 [1] of 6.54, a pIC50 [2, 10] of 5.26 and a pIC50 [3, 11] of 7.82. It also gave a pIC50 [4, 12] of 7.15 and a pIC50 [5, 13] of 6.00.

`CC(C)(NC(=O)N1CCN2CCC1CC2)c1ccc(-c2ccc(OCCC3COC3)cc2)cc1` [Example 196, N-(2-(4′-(2-(Oxetan-3-yl)ethoxy)-[1,1′-biphenyl]-4-yl)propan-2-yl)-1,4-diazabicyclo[3.2.2]nonane-4-carboxamide] was tested, and the pIC50 [1] was 6.27, the pIC50 [2, 10] was 6.56 and the pIC50 [3, 11] was 7.55. For the same compound, the pIC50 [4, 12] was ≤ 5.00 and the pIC50 [5, 13] was 6.00.

For `CC1(NC(=O)C2(F)CCN(c3nccc(-c4ccc(OCCF)cc4)n3)CC2)CN2CCC1CC2` (stereo not shown) [Example 92, 4-Fluoro-1-(4-(4-(2-fluoroethoxy)phenyl)pyrimidin-2-yl)-N-(3-methylquinuclidin-3-yl)piperidine-4-carboxamide], the pIC50 [1] was 8.84, the pIC50 [2, 10] was 7.54 and the pIC50 [3, 11] was 9.97. For the same compound, the pIC50 [4, 12] was 5.17 and the pIC50 [5, 13] was 7.00.

For `CC(C)(NC(=O)OC1CN2CCC1CC2)c1ccc(-c2ccc(OCC#N)cc2)cc1` (stereo not shown) [Example 190, Quinuclidin-3-yl (2-(4′-(cyanomethoxy)-[1,1′-biphenyl]-4-yl)propan-2-yl)carbamate], the pIC50 [1] was 8.59, the pIC50 [2, 6] was 7.32 and the pIC50 [3, 7] was 9.11. For the same compound, the pIC50 [4, 14] was ≤ 5.00 and the pIC50 [5, 15] was 6.00.

`CCC1(NC(=O)NC(C)(C)c2ccc(-c3ccc(S(=O)(=O)CC4CC4)cc3)cc2)CN2CCC1CC2` (stereo not shown) [Example 239, 1-(2-(4′-((Cyclopropylmethyl)sulfonyl)-[1,1′-biphenyl]-4-yl)propan-2-yl)-3-(3-ethylquinuclidin-3-yl)urea] gave a pIC50 [1] of 8.01, a pIC50 [2, 10] of 7.55 and a pIC50 [3, 11] of 8.49. For the same compound, the pIC50 [4, 12] was ≤ 5.00 and the pIC50 [5, 13] was 6.00.

`COCCOCc1ccc(-c2ccnc(N3CCC(C(=O)NC4(C)CCN5CCC4CC5)CC3)n2)cc1` (stereo not shown) [Example 74, 1-(4-(4-((2-Methoxyethoxy)methyl)phenyl)pyrimidin-2-yl)-N-(4-methyl-1-azabicyclo[3.2.2]nonan-4-yl)piperidine-4-carboxamide] gave a pIC50 [1] of 7.89, a pIC50 [2, 10] of 7.49 and a pIC50 [3, 11] of 9.15. For the same compound, the pIC50 [4, 12] was ≤ 5.00 and the pIC50 [5, 13] was 6.67.

`COCCOCc1ccc(-c2ccc(C3(NC(=O)NC4(C)CCN5CCC4CC5)CC3)cc2)cc1` (stereo not shown) [Example 207, 1-(1-(4′-((2-Methoxyethoxy)methyl)-[1,1′-biphenyl]-4-yl)cyclopropyl)-3-(4-methyl-1-azabicyclo[3.2.2]nonan-4-yl)urea] was tested, and the pIC50 [1] was 7.91, the pIC50 [2, 10] was 7.50 and the pIC50 [3, 11] was 8.86. For the same compound, the pIC50 [4, 12] was ≤ 5.00 and the pIC50 [5, 13] was 5.75.

`CCOc1ccc(-c2cccc(C(C)(C)NC(=O)OC3CCN4CCC3CC4)c2)nn1` (stereo not shown) [Example 319, 1-Azabicyclo[3.2.2]nonan-4-yl (2-(3-(6-ethoxypyridazin-3-yl)phenyl)propan-2-yl)carbamate] gave a pIC50 [1] of 7.12, a pIC50 [2, 10] of 6.92 and a pIC50 [3, 11] of 8.09. For the same compound, the pIC50 [4, 12] was ≤ 5.00 and the pIC50 [5, 13] was ≤ 5.00.

Work on `COCCOc1ccc(-c2nc(C(C)(C)NC(=O)OC3CN4CCC3CC4)cs2)cc1` (stereo not shown) [Example 343, Quinuclidin-3-yl (2-(2-(4-(2-methoxyethoxy)phenyl)thiazol-4-yl)propan-2-yl)carbamate] yielded a pIC50 [1] of 6.44, a pIC50 [2, 6] of 6.97 and a pIC50 [3, 7] of 7.70. For the same compound, the pIC50 [4, 14] was ≤ 5.00 and the pIC50 [5, 15] was 6.00.

With `O=C(N[C@@H]1CN2CCC1CC2)C1(F)CCN(c2nccc(-c3ccc(OCCF)cc3)n2)CC1` [Example 88, (S)-4-Fluoro-1-(4-(4-(2-fluoroethoxy)phenyl)pyrimidin-2-yl)-N-(quinuclidin-3-yl)piperidine-4-carboxamide] the pIC50 [1] was 8.77, the pIC50 [2, 10] was 7.25 and the pIC50 [3, 11] was 9.60. The pIC50 [4, 12] was ≤ 5.00 and the pIC50 [5, 13] was 6.00.

Work on `COCCOc1ccc(-c2ccc(C(C)(C)NC(=O)OC3CN4CCC3CC4)cc2)cc1` (stereo not shown) [Example 155, Quinuclidin-3-yl (2-(4′-(2-methoxyethoxy)-[1,1′-biphenyl]-4-yl)propan-2-yl)carbamate] yielded a pIC50 [1] of 8.46, a pIC50 [2, 6] of 7.41 and a pIC50 [3, 7] of 9.18. For the same compound, the pIC50 [4, 14] was 6.00 and the pIC50 [5, 15] was 6.67.

With `CC1(NC(=O)C2CCN(c3nccc(-c4ccc(F)cc4)n3)CC2)CCN2CCC1CC2` (single isomer, unassigned) [Example 43, 1-(4-(4-Fluorophenyl)pyrimidin-2-yl)-N-(4-methyl-1-azabicyclo[3.2.2]nonan-4-yl)piperidine-4-carboxamide] the pIC50 [1] was 8.90, the pIC50 ([2]; B16 mouse melanoma cells, read-out: GM3 B16 IC50) was 8.18 and the pIC50 ([3]; C32 human melanoma cells, read-out: GM3 C32 IC50) was 10.18. For the same compound, the pIC50 ([4]; B16 cells, concentration causing 50% cell death, values greater than 10 represent a lack of cell death, read-out: Viability, B16 IC50) was 5.15 and the pIC50 ([5]; C32 cells, read-out: Viability, C32 IC50) was 5.05.

`CC1CN(c2cccc(-c3ccccc3)c2)CCN1C(=O)NC1(C)CCN2CCC1CC2` (stereo not shown) [Example 30, 4-([1,1′-Biphenyl]-3-yl)-2-methyl-N-(4-methyl-1-azabicyclo[3.2.2]nonan-4-yl)piperazine-1-carboxamide] showed a pIC50 [1] of 6.42, a pIC50 [2, 10] of 6.06 and a pIC50 [3, 11] of 7.19. The pIC50 [4, 12] was 5.12 and the pIC50 [5, 13] was 6.00.

Compound `COCCOCc1ccc(-c2ccc(C3(NC(=O)N[C@]4(C)CN5CCC4CC5)CC3)cc2)cc1` [Example 210, (S)-1-(1-(4′-((2-Methoxyethoxy)methyl)-[1,1′-biphenyl]-4-yl)cyclopropyl)-3-(3-methylquinuclidin-3-yl)urea] has a pIC50 [1] of 7.30, a pIC50 [2, 10] of 7.06 and a pIC50 [3, 11] of 8.48. For the same compound, the pIC50 [4, 12] was ≤ 5.00 and the pIC50 [5, 13] was ≤ 5.00.

Work on `COCCCOc1ccc(-c2ccc(C3(NC(=O)NC4(C)CCN5CCC4CC5)CC3)cc2)cc1` (stereo not shown) [Example 177, 1-(1-(4′-(3-Methoxypropoxy)-[1,1′-biphenyl]-4-yl)cyclopropyl)-3-(4-methyl-1-azabicyclo[3.2.2]nonan-4-yl)urea] yielded a pIC50 [1] of 8.80, a pIC50 [2, 10] of 8.76 and a pIC50 [3, 11] of 9.30. For the same compound, the pIC50 [4, 12] was ≤ 5.00 and the pIC50 [5, 13] was ≤ 5.00.
